Data reported in patent publication US10525044B2, “Treatment for chemotherapy-induced peripheral neuropathy” (priority 2013, dated 2020).
“And” between values parts separate entries of the source, which are not always exact repeats. Equal entries are not always repeated.

What was measured:
[1] = test system: human lung cancer cell line H460; assay: MTS assay in H460 cancer cells; format: cell-based
Description: Cancer Cell Culture. The mouse liver cancer cell line BNLT3 (gift of Dr. Jack Wands, Brown University) and the human lung cancer cell line H460 (ATCC) were seeded into 96-well plates at a density of 4,000 cells/well and cultured at 37° C., 5% CO2, in DMEM (11965, Gibco) supplemented with 10% fetal bovine serum, 20 mM HEPES, 1 mM sodium pyruvate, and […] gentamycin (all reagents came from Gibco).
Cell Insults and Treatments. Determination of concentration for each anticancer drug in our experiments was based on its reported concentration in human cerebral spinal fluid (CSF) in chemotherapy, literature report of its neurotoxicity in culture, and our preliminary in vitro experimental data. At 13 d.i.v., the neuronal cell cultures were insulted with 100 μM of MTX (M9929, Sigma), 25 μM of 5-FU (F6627, Sigma), or 3.5 μM of CDDP (sc-200896, Santa Cruz) for 3 days in absence or presence of PAN 811.Cl.H2O. For ROS examination, the neurons were insulted with both 100 μM of MTX and 25 μM of 5-FU by 15 d.i.v. PAN-811.Cl.H2O was added to cultures to final concentrations of 1.25, 2.5, 5, and 10 μM at the same time as addition of the anticancer drugs. For cancer cell lines, the cells were insulted by the second day of cell seeding with the same concentration of MTX, 5-FU, or CDDP as used in neuronal culture in the absence or presence of 10 μM PAN-811.Cl.H2O for another 3 days.
Quantitative Assays and Morphological Assessment. Cell membrane integrity and mitochondrial function of either neurons or cancer cells were measured with LDH and 3-(4,5-dimethylthiazol-2-yl)-5-(3-carboxymethoxyphenyl)-2-(4-sulfophenyl)-2H-tetrazolium [MTS] analyses, respectively. The latter has been used to quantify cell survival. For the LDH assay, a mixture of a 35 μL aliquot of culture supernatant and 17.5 μL of Mixed Substrate, Enzyme and Dye Solutions (Sigma) was incubated at room temperature (RT) for 30 minutes. For the MTS assay, 10 μL of MTS reagent (Promega) was added to a culture well containing neurons in 50 μL of medium. The preparations were incubated at 37° C. for 2 hours. The preparations for both assays were then spectrophotometrically measured at 490 nm using a 96-well plate reader (Mode 550, Bio-Rad). Neuronal cell death was morphologically determined based on the integrity of the cell soma and continuity of neuronal processes. The change in number of cancer cells was judged directly by cell density. Cells were photographed under an inverted phase contrast microscope (IX 70, Olympus) using 10× or 20× objective.
Data Analysis. Data were generated from 4-6 replicate wells, expressed as mean±standard deviation (SD), and statistically evaluated at a significance level of 1% with one factor ANOVA or Student's t-test by using software VASSARSTATS (http://vassarstats.net/) followed by the Tukey HSD test. Figure symbols are as follows: #, P<0.05, and ##, P<0.01, compared with control; *, P<0.05, and **, P<0.01, compared with the insulted group; §§, P<0.01, compared with PAN-811 treated group by Student's t-test.

[2] = cell-free system, EDTA as positive control; cited from earlier work
rat, arterial occlusion = conditions: i.c.v., 50 μg per rat at 1 h after arterial occlusion; cited from earlier work
[3] = test system: intramitochondrial ROS in neurons; assay: ROS examination with DHR 123 in neurons; format: cell-based, Sprague-Dawley rats; conditions: 10 μM PAN-811; 100 μM MTX and 25 μM 5-FU; 1 day
From the text: Neuronal Cell Culture. […] Since AOs, including vitamin E, vitamin E acetate, superoxide dismutase (SOD), catalase (CAT), and GSH, are additives to culture medium, reduction of AO concentration in culture medium provides an approach to determine the level of OS involvement in a neurotoxic process. In our study, the culture medium was replaced at a 50% ratio with NB plus B27 minus AOs twice at days 7 and 9 to set AO concentrations as 50% and 25%, respectively. […] Cell Insults and Treatments. Determination of concentration for each anticancer drug in our experiments was based on its reported concentration in human cerebral spinal fluid (CSF) in chemotherapy, literature report of its neurotoxicity in culture, and our preliminary in vitro experimental data. […] For ROS examination, the neurons were insulted with both 100 μM of MTX and 25 μM of 5-FU by 15 d.i.v. […] ROS Examination. […] Fluorescence was photographed by using a fluorescentmicroscope and quantified by excitation at 485 nm and emission at 520 nm using a 96-well plate reader (Model 550, Bio-Rad). […] Data were generated from 4-6 replicate wells, expressed as mean±standard deviation (SD), and statistically evaluated at a significance level of 1% with one factor ANOVA or Student's t-test by using software […] […]

[4] = test system: human Alzheimer's disease-derived and age-matched olfactory neuroepithelial cells; conditions: via suppression of intracellular reactive oxygen species; cited from earlier work

## NC(=S)N/N=C/c1ncccc1N [PAN-811, 3-aminopyridine-2-carboxaldehyde thiosemicarbazone]
[1]; 3.5 μM CDDP and 10 μM PAN-811
  interaction with CDDP on suppression of H460 growth: synergistic effect
[1]; 3.5 μM CDDP and 10 μM PAN-811, 3 days
  reduction of MTS reading, cotreatment with CDDP: 85%
[1]; 10 μM PAN-811
  inhibition of the effect of MTX, 5-FU, or CDDP on cell growth of H460 cells: did not show any inhibition
[1]; 25 μM 5-FU and 10 μM PAN-811
  interaction with 5-FU on suppression of H460 growth: synergistic effect
[1]; 25 μM 5-FU and 10 μM PAN-811, 3 days
  reduction of MTS reading, cotreatment with 5-FU: 84%
[1]; 100 μM MTX and 10 μM PAN-811, 3 days
  MTS reading, cotreatment with MTX: about the same as 10 μM PAN-811 alone
[1]; each agent alone, 3 days: MTX 100 μM, 5-FU 25 μM, CDDP 3.5 μM, PAN-811 10 μM
  reduction of MTS reading: 76% and 74% and 75%
[2]
  chelation of free calcium: as efficiently as EDTA
rat, arterial occlusion
  reduction of infarct volume: 59%
[3]
  suppression rate of increased ROS (DHR123): 62.3%
[4]
  oxidative stress-induced cell death: inhibited
